Test system: SKOV3 human ovarian cancer cells
Assay: Effects of ADH358 on confluent cultures of SKOV3 cells (disruption of cell adhesion, microscopic examination)
Assay type: cell-based
Details: 1 mg/ml of culture medium, 24 hours of treatment
Method: We investigated the effects of the linear peptide ADH358 (H-RWAPIP-NH2 (SEQ ID NO: 2); Desmocollin derived peptide) on confluent cultures of SKOV3 cells. SKOV3 human ovarian cancer cells express desmosomes (which are composed of desmocollins and desmogleins). SKOV3 human ovarian cancer cells were obtained from Dr. Riaz Farookhi, McGill University, Montreal, Canada. The cells were cultured in minimum essential medium (MEM) supplemented with 10% fetal calf serum, non-essential amino acids, fungizone, penicillin-streptomycin, and gentamicin in a humidified atmosphere (5% CO2) at 37° C. All culture reagents were purchased from GIBCO (Burlington, ON). ADH358 (1 mg/ml of culture medium) was added to confluent cultures of SKOV3 cells. After 24 hours of treatment, the cells were fixed with 4% paraformaldehyde, followed by 3 washes with phosphate buffered saline, and then stained with hematoxylin. Control cultures were grown in the absence of peptide.

H-RWAPIP-NH2 [ADH358]
cell morphology / cell-cell attachment of SKOV3 cells: detach from one another and adopt an elongated, fibroblast-like morphology | effect on confluent SKOV3 monolayers (cell adhesion) (hematoxylin stain, vs control cultures without peptide): disruption of the confluent SKOV3 monolayers
